The test system of the test is human serum loaded with p-benzoquinone (quinhydron radicals). Briefly: Antioxidant capacity: human serum loaded with p-benzoquinone, colorimetric determination of p-dihydroquinone at 500 nm. The settings on record: for Antiox-Titer: human serum, p-benzoquinone load, extinction at 500 nm/60 sec; for 1 mg of tocotrienol effect in μg radicals/ml · sec.: per 1 mg of tocotrienol; for Radicals μg/ml · sec: radicals inhibited, converted from extinction. The text has this:
In this examining method, human serum is subjected to the oxidative stress of a defined amount of para-benzoquinone. By adding defined amounts of the antioxidants to be tested (natural tocotrienol mixture of wheat bran oil, wheat germ oil, tocopherol acetat, D-alpha-tocopherol), the antioxidant load bearing capacity of the test sample is quantitated by calorimetric determination of the para-dihydroquinone that has been reduced from para-benzoquinone. […] Human donor blood is recovered from the vein without any additives and centrifuged at 800-1000 g after having been left standing for 1 h in the refrigerator (approximately +4° C.-+7° C.). The separated serum fractions are removed and pooled. The serum can be stored at -22° C. for about 14 days or immediately be used for the required measurements. To determine the antioxidant capacity of an antioxidant, the serum is radically loaded in stages. p-Benzoquinone was used for radical formation. In a physiological environment (pH=slightly alkaline), this substance is converted into the relatively stable radical anion of the quinhydrone system. In doing so, one hydrogen atom (1 proton/1 electron) of p-benzoquinone is taken up. The further reaction to the stable end product p-dihydroquinone takes place inversely proportionally, at pH 6.9-7.4 within minutes, and primarily linearly to the antioxidant content (reducing agent) in the reaction environment. Thus, the conditions for the applicability of Lambert-Beer's law have been met for determining the end product (dihydro-quinone) as a typically coloured substance. The comparatively stable radical anion (quinhydrone) is converted into the dihydroquinone in a second reduction step by taking up a further electrone (hydrogen from the available antioxidants). […] The calorimetric determination of the amount of end product is effected at λ=500 nm. […] With a linear extinction increase-and a linearly growing consumption of the antioxidant-active substance, the reacted portions can be precisely calculated from the stoichiometric reaction conditions. According to Michaelis/[…] and Pauling, respectively (Holleman-Wiberg; Lehrbuch der Anorganischen Chemie, de Gruyter-Verlag (1995)), the reaction intensity up to the dihydroquinone will depend on the ratio of the concentrations of oxidised to reduced. I.e., the higher the reduction (antioxidant) supply, the more the reaction will be inhibited, the content of the dihydroquinone forming will decrease. Thus, this reaction is excellently suited to be used in redox systems for finely dosed quantitative determinations for substances that are reducingly active. In three parallel measurement series, serum samples ([…] each) of the pool with p-benzoquinone are loaded in three stages (10, 20 and 30 μg). […] In the calculated reaction quantities, the mean of the 60 second value corresponds to the defined titer (=one third reaction). This value precisely results from the graphic illustration of the mean values as extinction curve. All further tests with antioxidant addition are comparatively related to this defined calibration value of the serum pool without antioxidant addition (i.e., with an increasing supply of antioxidants in the serum, the extinction must drop for dihydroquinone). Three parallel measurement series of serum samples were carried out under addition of 500 μg/ml of preparation according to the invention to determine the antioxidant capacity of the tocotrienol-rich wheat bran oils according to the invention. […] Referring to the curve of the extinction values of the comparative serum without additions and the stoichiometric reaction conditions applied (serum determination/concentration of p-benzoquinone/amount per ml of serum dilution), the conversion factor extinction to radical inhibition will result from this calibration system. […] For a more encompassing evaluation of the product quality, the comparison with other antioxidants is required. […]

Regarding `Cc1c(C)c2c(c(C)c1O)CC[C@@](C)(CCC[C@H](C)CCC[C@H](C)CCCC(C)C)O2` [D-alpha-Tocopherol, D-alpha-tocopherol], the Antiox-Titer is 0.06, the “1 mg of tocotrienol effect in μg radicals/ml · sec.” value is reported as 0.00674 μg radicals/ml · sec and the “Radicals μg/ml · sec” value was 1.6848 μg/ml · sec.

Consider `CC(=O)Oc1c(C)c(C)c2c(c1C)CCC(C)(CCC[C@H](C)CCC[C@H](C)CCCC(C)C)O2` (stereo partly drawn) [Tocopherol acetate, D,L-alpha-tocopherol acetate], for which the Antiox-Titer is recorded as 0.125, the “1 mg of tocotrienol effect in μg radicals/ml · sec.” value is listed as 0.014 μg radicals/ml · sec and the “Radicals μg/ml · sec” value is 3.51 μg/ml · sec.

Values taken from US20050234248A1, “Method of producing preparations rich in tocotrienol” (Vis-Vitalis Lizenz- Und Handels Gmbh, priority 2002, published 2005).
